According to patent publication US6225321A (priority 1997, dated 2001):
Several values for one entry are separate records, joined by “and”; a condition that tells them apart may be missing. Equal values may be shown once. Where a name gives a salt, the structure may show the parent alone.

Experiments:
human = details: Shafer et al. 1991; cited from earlier work
[1] = cited from earlier work
Sprague Dawley rats = test: Analgesic effect, cold ethanol bath tail flick test, intramuscular, rats; assay type: in vivo, rat; details: FIG. 6, rats, 25 micromole/kg intramuscular; for analgesic duration of Nalbuphine free base compared with the preparation of this ester: the shorter one is Nalbuphine free base
Procedure: Sprague Dawley rats(175 to 225 g) were used. Each group consisted of 6 rats and each rats was injected once intramuscularly on the rear leg. […]
The dose for each rat was 25 micromole per kg, intramuscularly.
In the experiment, a circulating cold ethanol bath with a temperature maintained at -20° C. was set up. After dosing, the rat tail(1/3 from the tip) was immersed in the bath. The latency for the rat to flick its tail from the bath was measured to be the nociceptive threshold. The effect of various opium alkaloid preparations can be determined with this test.
The nociceptive effect can be calculated as follows: [formula]
35, 25, 15 minutes before dosing, Male Sprague Dawley rat(175-225 g) was tested to measure the basic response latency. The time to top the experiment was set at 40 seconds to prevent the tail from cold sore. No cold sore were found in 40 sec. Five minutes after the drug was given to the rat, the flick test was performed every 10 minutes or more. […]
(c) Dinalbuphine sebacoyl ester, dose was 7.8125 μ/kg, 31.25 μM/kg, 125 μM/kg.
(d) 50 mg/ml dinalbuphine sebacoyl ester parenteral dosage forms, dinalbuphine sebacoyl ester was prepared in sesame oil.

[2] = between 17 and 28 hours; p<0.05
guinea pigs = test: Analgesic effect, intramuscular, guinea pigs; assay type: in vivo, guinea pig; details: hydrochloride
Procedure: Six male Sprague Dawley rats (175 to 225 g), and six male guinea pigs (200 to 250 g) were used.
Dose for guinea pig was 500 μ/kg, 250 μM/kg.

[3] = comparison value for Nalbuphine hydrochloride, source not stated; cited from earlier work

## Oc1ccc2c(c1)[C@@]13CCCC[C@@]1(O)[C@@H](C2)N(CC1CCC1)CC3 [Butorphanol]
human
  dose needed to elicit the same analgesic effect: 2 mg

## CCCCCCCCCC(=O)OC1(c2ccc(Cl)cc2)CCN(CCCC(=O)c2ccc(F)cc2)CC1 [Haloperidol decanoate]
[1]; intramuscular, Gelders 1986
  dosing frequency to which effect was extended: 1 to 2 times a month

## CN1CC[C@]23c4c5ccc(O)c4O[C@H]2[C@@H](O)C=C[C@H]3[C@H]1C5 [Morphine]
human
  dose needed to elicit the same analgesic effect: 10 mg

## O=C(Oc1ccc2c3c1O[C@H]1[C@@H](O)CC[C@@]4(O)[C@@H](C2)N(CC2CCC2)CC[C@]314)c1ccccc1 [Nalbuphine benzoate]
Sprague Dawley rats
  analgesic duration of Nalbuphine free base compared with the preparation of this ester: significantly shorter

## CCCCCCCCCC(=O)Oc1ccc2c3c1O[C@H]1[C@@H](O)CC[C@@]4(O)[C@@H](C2)N(CC2CCC2)CC[C@]314 [Nalbuphine decanoate]
Sprague Dawley rats
  analgesic duration of Nalbuphine free base compared with the preparation of this ester: significantly shorter

## CCCCCCC(=O)Oc1ccc2c3c1O[C@H]1[C@@H](O)CC[C@@]4(O)[C@@H](C2)N(CC2CCC2)CC[C@]314 [Nalbuphine enanthate]
Sprague Dawley rats
  analgesic duration of Nalbuphine free base compared with the preparation of this ester: significantly shorter

## Oc1ccc2c3c1O[C@H]1[C@@H](O)CC[C@@]4(O)[C@@H](C2)N(CC2CCC2)CC[C@]314 [Nalbuphine free base, reference compound]
Sprague Dawley rats
  analgesic duration compared with preparations of Nalbuphine monomer ester: significantly shorter
[2]
  amount of released Nalbuphine free base: less in the preparation with sesame oil than with peanut oil ester and the control

## Oc1ccc2c3c1O[C@H]1[C@@H](O)CC[C@@]4(O)[C@@H](C2)N(CC2CCC2)CC[C@]314 [Nalbuphine hydrochloride]
Guinea pigs
  dose at which significant analgesic effect was found: 500 µM/kg and 250 µM/kg
[3]
  half life for excretion: about 1 hour

## CC(C)(C)C(=O)Oc1ccc2c3c1O[C@H]1[C@@H](O)CC[C@@]4(O)[C@@H](C2)N(CC2CCC2)CC[C@]314 [Nalbuphine pivalate]
Sprague Dawley rats
  analgesic duration of Nalbuphine free base compared with the preparation of this ester: significantly shorter

## CCC(=O)Oc1ccc2c3c1O[C@H]1[C@@H](O)CC[C@@]4(O)[C@@H](C2)N(CC2CCC2)CC[C@]314 [Nalbuphine propionate]
Sprague Dawley rats
  analgesic duration of Nalbuphine free base compared with the preparation of this ester: significantly shorter

## C#C[C@]1(OC(=O)CCCCCC)CC[C@H]2[C@@H]3CCC4=CC(=O)CC[C@@H]4[C@H]3CC[C@@]21C [Northisterone enanthate]
[1]; Joshi et al. 1989
  dosing interval can be set longer to: two months

## C[C@]12CC[C@H]3[C@@H](CCC4=CC(=O)CC[C@@]43C)[C@@H]1CC[C@@H]2O [Testosterone]
[1]; suspension
  drug release: released quickly
